Measured values taken from PubChem BioAssay (NCI).
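All cell lines were grown in 96-well plates and treated with compound for 48 hours. Here, GI50 denotes the concentration required for 50% inhibition of growth. TGI marks complete inhibition of growth.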

Key:
Test in all cases: growth of human tumour cells (NCI), 48 h
[1] = tested on: K-562 leukemia
[2] = tested on: 786-0 renal
[3] = tested on: HT29 colon
[4] = tested on: HL-60(TB) leukemia
[5] = tested on: EKVX NSCLC
[6] = tested on: UACC-257 melanoma
[7] = tested on: MOLT-4 leukemia
[8] = tested on: NCI-H460 lung
[9] = tested on: SK-MEL-28 melanoma
[10] = tested on: OVCAR-4 ovarian
[11] = tested on: A549 NSCLC
[12] = tested on: IGROV1 ovarian
[13] = tested on: OVCAR-8 ovarian
[14] = tested on: SK-MEL-2 melanoma
[15] = tested on: CCRF-CEM leukemia
[16] = tested on: HS 578T breast
[17] = tested on: M14 melanoma
[18] = tested on: SK-OV-3 ovarian
[19] = tested on: NCI-H522 lung
[20] = tested on: UACC-62 melanoma
[21] = tested on: HOP-92 NSCLC
[22] = tested on: RPMI-8226 leukemia
[23] = tested on: OVCAR-5 ovarian
[24] = tested on: MCF7 breast
[25] = tested on: MDA-MB-435
[26] = tested on: HCC-2998 colon
[27] = tested on: HOP-62 NSCLC
[28] = tested on: SNB-75 CNS
[29] = tested on: ACHN renal
[30] = tested on: SF-268 CNS
[31] = tested on: LOX IMVI melanoma
[32] = tested on: SW-620 colon
[33] = tested on: NCI/ADR-RES ovarian
[34] = tested on: MDA-MB-231 breast
[35] = tested on: NCI-H23 lung
[36] = tested on: A498 renal
[37] = tested on: SF-539 CNS
[38] = tested on: HCT-116 colon
[39] = tested on: HCT-15 colon
[40] = tested on: DU-145 prostate
[41] = tested on: COLO 205 colon
[42] = tested on: CAKI-1 renal
[43] = tested on: SNB-19 CNS
[44] = tested on: TK-10 renal
[45] = tested on: BT-549 breast
[46] = tested on: SN12C renal
[47] = tested on: PC-3 prostate
[48] = tested on: SR leukemia
[49] = tested on: UO-31 renal
[50] = tested on: OVCAR-3 ovarian
[51] = tested on: KM12 colon
[52] = tested on: U251 CNS
[53] = tested on: T-47D breast
[54] = tested on: SK-MEL-5 melanoma
[55] = tested on: RXF 393 renal
[56] = tested on: SF-295 CNS
[57] = tested on: MALME-3M melanoma
[58] = tested on: NCI-H226 lung

Compound `CCOc1cccc(/C=N/NC(=O)Cc2ccc(Nc3ccnc(C(F)(F)F)c3)cc2)c1O` has a GI50 [1] of 2.25 µM, a TGI [1] of 15 µM and a GI50 [2] of 2.85 µM. For the same compound, the TGI [2] was 74.9 µM, the GI50 [3] was 8 µM and the TGI [3] was 78.6 µM. The GI50 [4] was 1.03 µM, the TGI [4] was 4.22 µM and the GI50 [5] was 3.87 µM. For the same compound, the TGI [5] was > 100 µM, the GI50 [6] was 6.84 µM and the TGI [6] was > 100 µM. For the same compound, the GI50 [7] was 0.499 µM, the TGI [7] was 4.42 µM and the GI50 [8] was 1.71 µM. The TGI [8] was 13.5 µM, the GI50 [9] was 2.97 µM and the TGI [9] was > 100 µM. The GI50 [10] was 0.824 µM, the TGI [10] was > 100 µM and the GI50 [11] was 4.09 µM. The TGI [11] was > 100 µM, the GI50 [12] was 2.27 µM and the TGI [12] was > 100 µM. For the same compound, the GI50 [13] was 3.27 µM, the TGI [13] was > 100 µM and the GI50 [14] was 11.4 µM. For the same compound, the TGI [14] was 45 µM, the GI50 [15] was 0.328 µM and the TGI [15] was 2.76 µM. For the same compound, the GI50 [16] was 5.75 µM, the TGI [16] was > 100 µM and the GI50 [17] was 1.79 µM. For the same compound, the TGI [17] was 15.8 µM, the GI50 [18] was 3.3 µM and the TGI [18] was > 100 µM. For the same compound, the GI50 [19] was 4.76 µM, the TGI [19] was 33.2 µM and the GI50 [20] was 1.64 µM. The TGI [20] was 14.7 µM, the GI50 [21] was 1.9 µM and the TGI [21] was 9.93 µM. The GI50 [22] was 0.519 µM, the TGI [22] was 17.4 µM and the GI50 [23] was 32.6 µM. The TGI [23] was > 100 µM, the GI50 [24] was 2.39 µM and the TGI [24] was > 100 µM. The GI50 [25] was 3.77 µM, the TGI [25] was > 100 µM and the GI50 [26] was 6.78 µM. The TGI [26] was 93.4 µM, the GI50 [27] was 2.28 µM and the TGI [27] was 30.8 µM. For the same compound, the GI50 [28] was 12.4 µM, the TGI [28] was 55 µM and the GI50 [29] was 1.53 µM. The TGI [29] was > 100 µM, the GI50 [30] was 1.27 µM and the TGI [30] was 32.4 µM. For the same compound, the GI50 [31] was 1.49 µM, the TGI [31] was > 100 µM and the GI50 [32] was 3.06 µM. For the same compound, the TGI [32] was 18 µM, the GI50 [33] was 4.23 µM and the TGI [33] was > 100 µM. For the same compound, the GI50 [34] was 3.15 µM, the TGI [34] was > 100 µM and the GI50 [35] was 5.26 µM. For the same compound, the TGI [35] was > 100 µM, the GI50 [36] was 4.62 µM and the TGI [36] was 67 µM. For the same compound, the GI50 [37] was 2.03 µM, the TGI [37] was 14.5 µM and the GI50 [38] was 1.2 µM. The TGI [38] was 19.3 µM, the GI50 [39] was 0.909 µM and the TGI [39] was > 100 µM. For the same compound, the GI50 [40] was 2.06 µM, the TGI [40] was > 100 µM and the GI50 [41] was 3.9 µM. For the same compound, the TGI [41] was > 100 µM, the GI50 [42] was 2.54 µM and the TGI [42] was 52.2 µM. For the same compound, the GI50 [43] was 2.54 µM, the TGI [43] was > 100 µM and the GI50 [44] was 4.01 µM. It also gave a TGI [44] of 44.5 µM, a GI50 [45] of 2.34 µM and a TGI [45] of 46.3 µM. For the same compound, the GI50 [46] was 4.58 µM, the TGI [46] was > 100 µM and the GI50 [47] was 1.88 µM. The TGI [47] was 21.6 µM, the GI50 [48] was 0.316 µM and the TGI [48] was 10.8 µM. The GI50 [49] was 0.986 µM, the TGI [49] was 20.7 µM and the GI50 [50] was 0.394 µM. For the same compound, the TGI [50] was 30.4 µM, the GI50 [51] was 3.73 µM and the TGI [51] was 84.3 µM. The GI50 [52] was 1.58 µM, the TGI [52] was > 100 µM and the GI50 [53] was 2.43 µM. It also gave a TGI [53] of 26 µM, a GI50 [54] of 1.67 µM and a TGI [54] of 5.99 µM. It also gave a GI50 [55] of 3.2 µM, a TGI [55] of 40 µM and a GI50 [56] of 3.81 µM. It also gave a TGI [56] of 43.2 µM, a GI50 [57] of 2.13 µM and a TGI [57] of 18.7 µM. The GI50 [58] was 3.21 µM and the TGI [58] was 34.9 µM.
